Experiments:
Experiment in all cases: combination Emax (second highest fraction inhibited in the dose matrix, 72 h); higher = more inhibition; extreme values may be limits of the assay
[1] = system: CFPAC-1 (Pancreatic Carcinoma)
In short: (§1)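 After 24 hours at 37°C and 5% CO2 in 1536-well plates, cells in DMEM/F12 or RPMI plus 10% FBS received two-drug dose matrices for 72 hours. Viability came from CellTiter-Glo 2.0 luminescence and was scaled as inhibition, anchored at 0 by vehicle wells and at 1 by blank wells. Combination Emax is taken as the second-highest inhibition in the matrix, and Bliss excess as the observed combination effect less EA + EB − EA·EB, with EA and EB the single-agent effects.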

[2] = system: COR-L23 (Non-Small Cell Lung Carcinoma)
In short: as §1

[3] = system: COR-L95 (Small Cell Lung Carcinoma)
In short: as §1

[4] = system: HPAC (Pancreatic Carcinoma)
In short: as §1

[5] = system: HT-29 (Colorectal Carcinoma)
In short: as §1

[6] = system: IHH-4 (Thyroid Gland Carcinoma)
In short: as §1

[7] = system: KM-H2 (Hodgkin's Lymphoma)
In short: as §1

[8] = system: MDA-MB-157 (Breast Carcinoma)
In short: as §1

[9] = system: NCI-H1694 (Small Cell Lung Carcinoma)
In short: as §1

[10] = system: NCI-H1781 (Lung Adenocarcinoma)
In short: as §1

[11] = system: NCI-H2369 (Mesothelioma)
In short: as §1

[12] = system: OCI-AML2 (Acute Myeloid Leukemia)
In short: as §1

[13] = system: RH-1 (Ewing's Sarcoma)
In short: as §1

[14] = system: SNU-C5 (Colorectal Carcinoma)
In short: as §1

[15] = system: SW1783 (Low Grade Glioma)
In short: as §1

[16] = system: SW1990 (Pancreatic Carcinoma)
In short: as §1

[17] = system: SW756 (Cervical Carcinoma)
In short: as §1

[18] = system: SW780 (Bladder Carcinoma)
In short: as §1

[19] = system: TGBC24TKB (Biliary Tract Carcinoma)
In short: as §1

[20] = system: U-266 (Plasma Cell Myeloma)
In short: as §1

| SMILES | combination Emax [7] | combination Emax [1] | combination Emax [2] | combination Emax [3] | combination Emax [4] | combination Emax [5] | combination Emax [6] | combination Emax [8] | combination Emax [9] | combination Emax [10] | combination Emax [11] | combination Emax [12] | combination Emax [13] | combination Emax [14] | combination Emax [15] | combination Emax [16] | combination Emax [17] | combination Emax [18] | combination Emax [19] | combination Emax [20] |
| --- | --- | --- | --- | --- | --- | --- | --- | --- | --- | --- | --- | --- | --- | --- | --- | --- | --- | --- | --- | --- |
| Cc1nc(Nc2ncc(C(=O)Nc3c(C)cccc3Cl)s2)cc(N2CCN(CCO)CC2)n1 [Dasatinib] + CC(=O)Nc1cccc(-n2c(=O)n(C3CC3)c(=O)c3c(Nc4ccc(I)cc4F)n(C)c(=O)c(C)c32)c1 [Trametinib] (first compound max 2 µM, 7x7, partner max 1 µM) | 0.234 | 0.847 | 0.85 | 0.128 | 0.893 | 0.981 | 0.896 | 0.234 | 0.111 | 0.34 | 0.277 | 1 | 0.08 | 0.571 | 0.43 | 0.399 | 0.691 | 0.625 | 0.736 | 0.832 |
| NC1(C(=O)N[C@@H](CCO)c2ccc(Cl)cc2)CCN(c2ncnc3[nH]ccc23)CC1 [Capivasertib] + CC(=O)c1c(C)c2cnc(Nc3ccc(N4CCNCC4)cn3)nc2n(C2CCCC2)c1=O [Palbociclib] (first compound max 10 µM, 7x7, partner max 10 µM) | 0.513 | 0.519 | 0.442 | 0.172 | 0.589 | 0.577 | 0.618 | 0.24 | 0.141 | 0.479 | 0.259 | 0.804 | 0.391 | 0.567 | 0.407 | 0.214 | 0.389 | 0.248 | 0.556 | 0.254 |
| CC1(C)CCC(CN2CCN(c3ccc(C(=O)NS(=O)(=O)c4ccc(NCC5CCOCC5)c([N+](=O)[O-])c4)c(Oc4cnc5[nH]ccc5c4)c3)CC2)=C(c2ccc(Cl)cc2)C1 [Venetoclax] + COc1cc(Nc2ncc3c(n2)-c2ccc(Cl)cc2C(c2c(F)cccc2OC)=NC3)ccc1C(=O)O [Alisertib] (first compound max 1 µM, 7x7, partner max 10 µM) | 0.448 | 0.402 | 0.307 | 0.705 | 0.688 | 0.418 | 0.411 | 0.649 | 0.667 | 0.665 | 0.327 | 1 | 1 | 0.347 | 0.634 | 0.415 | 0.273 | 0.534 | 0.638 | 0.751 |

Further lines, with some results ahead:

| combination Emax [7] | SMILES | combination Emax [1] | combination Emax [2] | combination Emax [3] | combination Emax [4] | combination Emax [5] | combination Emax [6] | combination Emax [8] | combination Emax [9] | combination Emax [10] | combination Emax [11] | combination Emax [12] | combination Emax [13] | combination Emax [14] | combination Emax [15] | combination Emax [16] | combination Emax [17] | combination Emax [18] | combination Emax [19] | combination Emax [20] |
| --- | --- | --- | --- | --- | --- | --- | --- | --- | --- | --- | --- | --- | --- | --- | --- | --- | --- | --- | --- | --- |
| 0.909 | CN(CCO)CC[C@H](CSc1ccccc1)Nc1ccc(S(=O)(=O)NC(=O)c2ccc(N3CCC([C@@H](O)c4ccccc4-c4ccc(Cl)cc4)CC3)cc2)cc1S(=O)(=O)C(F)(F)F [AZD4320] + C[C@@H]1COCCN1C2=NC(=NC(=C2)C3(CC3)[S@](=N)(=O)C)C4=C5C=CNC5=NC=C4 [AZD6738] (first compound max 1 µM, 7x7, partner max 10 µM) | 0.724 | 0.621 | 1 | 0.897 | 0.936 | 0.769 | 0.94 | 0.974 | 0.519 | 0.324 | 1 | 0.963 | 0.854 | 0.669 | 0.845 | 0.381 | 0.506 | 0.891 | 0.834 |
| 0.943 | COc1nnc2ccc(N3CCC(c4ccc(OCCN5CCN(C)C(=O)[C@H]5C)cc4)CC3)nn12 [AZD5153] + C=CCn1c(=O)c2cnc(Nc3ccc(N4CCN(C)CC4)cc3)nc2n1-c1cccc(C(C)(C)O)n1 [AZD1775] (first compound max 1 µM, partner max 1 µM) | 0.506 | 0.68 | 0.433 | 0.735 | 0.868 | 0.662 | 0.636 | 0.714 | 0.478 | 0.461 | 1 | 0.997 | 0.682 | 0.41 | 0.24 | 0.426 | 0.429 | 0.826 | 0.637 |
| 0.139 | CC1(C)CCC(CN2CCN(c3ccc(C(=O)NS(=O)(=O)c4ccc(NCC5CCOCC5)c([N+](=O)[O-])c4)c(Oc4cnc5[nH]ccc5c4)c3)CC2)=C(c2ccc(Cl)cc2)C1 [Venetoclax] + C[C@@H](Nc1cc(F)cc(F)c1)c1cc(C(=O)N(C)C)cc2c(=O)cc(N3CCOCC3)oc12 [AZD8186] (first compound max 1 µM, 7x7, partner max 3 µM) | 0.255 | 0.054 | 0.782 | 0.211 | 0.132 | 0.22 | 0.546 | 0.376 | 0.28 | 0.107 | 1 | 0.0877 | 0.166 | 0.336 | 0.452 | 0.117 | 0.163 | 0.169 | 0.471 |

From the supplement of paper PMC11061612
